Each compound was assayed against T1, human TPO receptor (hTPOR) (Homo sapiens, UniProt P40238) (assay: Proliferation of TPO dependent BaF/hTPOR cells, WST-1, thrombopoietic activity ED50 (Test Example 3)). Conditions: 20 h incubation then WST-1 4 h, absorbance at 450 nm.
T1 construct: expressed in transfected cells; host or cells: BaF-B03 (murine IL-3 dependent cell line)
T1 sequence (P40238 26-635): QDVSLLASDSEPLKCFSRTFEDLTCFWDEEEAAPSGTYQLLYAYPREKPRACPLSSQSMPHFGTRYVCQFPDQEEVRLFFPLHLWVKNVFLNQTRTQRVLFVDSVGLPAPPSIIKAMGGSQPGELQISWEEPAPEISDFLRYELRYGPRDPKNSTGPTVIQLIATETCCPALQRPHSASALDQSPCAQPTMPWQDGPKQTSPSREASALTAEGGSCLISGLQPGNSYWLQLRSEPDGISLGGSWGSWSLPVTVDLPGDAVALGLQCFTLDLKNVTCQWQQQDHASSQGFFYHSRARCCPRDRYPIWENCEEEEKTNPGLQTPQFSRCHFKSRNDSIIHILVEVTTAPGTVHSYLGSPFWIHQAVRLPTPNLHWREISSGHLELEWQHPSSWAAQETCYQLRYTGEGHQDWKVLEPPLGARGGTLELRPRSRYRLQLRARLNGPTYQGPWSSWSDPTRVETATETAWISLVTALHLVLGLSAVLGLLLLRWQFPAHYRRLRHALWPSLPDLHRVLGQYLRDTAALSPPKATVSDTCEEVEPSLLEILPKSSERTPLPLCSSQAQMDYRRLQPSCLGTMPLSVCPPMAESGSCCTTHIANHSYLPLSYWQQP
Type: cell-based
Description: FIG. 2: The chart represents proliferation of the human TPO dependent cells bearing human TPO receptors by the present invention compound, wherein the x-axis is concentration of the present invention compound, and the y-axis is the absorbance as an indicator of cell proliferation. Open circles indicate a response of human TPO, and closed circles indicate a response of the compound (B-1).
The TPO dependent BaF/hTPOR cell line which was established by introducing human TPO receptor (hTPOR) into BaF-B03 cells according to Collins et al (J. Cell. Physiol., 137:293-298 (1988)) was used to test the thrombopoietic activity of the present compound. The DNA sequences and encoded peptide sequences for human hTPOR have been described by Vigon et al (Proc. Natl. Acad. Sci. USA, 89:5640-5644 (1992)). TPO dose not have any ability to support proliferation of interleukin-3 dependent parental cell line BaF-B03. BAF/hTPOR cells were maintained in RPMI medium and WEHI-3B conditioned medium as a source of murine interleukin-3 (IL-3). These cells were washed and resuspended in RPMI medium without a source of murine IL-3 and seeded into each well of 96-well microtiter plates at a density of 5×10^4 cells per well in the absence or presence of various concentration of hTPO or the present compound. After incubation at 37° C. for 20 hours in the 5% CO2 incubator, 10% WST-1 reagent (Takara Biomedicals, Japan) was added to each wells and the cells were further incubated for 4 hours. Effect of the present compound on the growth of BAF/mTPOR cell line which was established by introducing murine TPO receptor (mTPOR) into BAF-B03 cells is shown in FIG. 3. Table 8 exemplifies the ED50 for tested compounds of the present invention, wherein the ED50 is the half concentration of the concentration showing the maximum thrombopoietic activity.

Row | EC50 | SMILES
1 | 529 nM | CC(C(=O)O)=C(C)c1ccc(C(=O)Nc2nc(-c3ccc(Cl)c(Cl)c3)cs2)cc1 [Compound A-8]
2 | 729 nM | C/C(=C\c1ccc(C(=O)Nc2nc(-c3ccc(Cl)c(Cl)c3)cs2)cc1)C(=O)NC(C)(C)C [Compound B-39]
3 | 346 nM | CNC(=O)/C(C)=C/c1ccc(C(=O)Nc2nc(-c3ccc(F)c(F)c3)cs2)cc1 [Compound B-26]
4 | 218 nM | CCOC(=O)/C=C/c1ccc(C(=O)Nc2nc(-c3ccc(Cl)c(Cl)c3)cs2)cc1 [Compound A-3]
5 | 77 nM | Cc1cccc(-c2csc(NC(=O)c3ccc(/C=C(\Cl)C(=O)O)cc3)n2)c1F [Compound A-83]
6 | 211 nM | Cn1cc(-c2csc(NC(=O)c3ccc(/C=C(\Cl)C(=O)O)cc3)n2)c2ccccc21 [Compound A-66]
7 | 208 nM | COC(=O)C#Cc1ccc(C(=O)Nc2nc(-c3ccc(Cl)c(Cl)c3)cs2)cc1 [Compound L-1]
8 | 504 nM | CCOC(=O)C(C)=Cc1ccc(C(=O)Nc2nc(-c3ccc(F)c(F)c3)cs2)cc1 [Compound A-9]
9 | 370 nM | O=C(Nc1nc(-c2ccc(Cl)c(Cl)c2)cs1)c1ccc(CC(F)C(=O)O)cc1 (centres unmarked) [Compound G-6]
10 | 193 nM | CCOC(=O)/C(C)=C/c1ccc(C(=O)Nc2nc(-c3cccc(C(F)(F)F)c3)cs2)cc1 [Compound A-27]
11 | 150 nM | CC/C(=C\c1ccc(C(=O)Nc2nc(-c3ccc(Cl)c(Cl)c3)cs2)cc1)C(=O)NC [Compound B-18]
12 | 113 nM | O=C(O)/C(Cl)=C/c1ccc(C(=O)Nc2nc(-c3ccccc3F)cs2)cc1 [Compound A-50]
13 | 19 nM | O=C(O)/C(Cl)=C/c1ccc(C(=O)Nc2nc(-c3cccc(C(F)(F)F)c3F)cs2)cc1 [Compound A-57]
14 | 321 nM | COC(=O)C#Cc1ccc(C(=O)Nc2nc(-c3ccc(Cl)c(Cl)c3)cs2)cc1OC [Compound L-3]
15 | 472 nM | O=C(O)/C(Cl)=C/c1ccc(C(=O)Nc2nc(-c3ccc4c(c3)CCO4)cs2)cc1 [Compound A-74]
16 | 71 nM | O=C(O)/C(Cl)=C/c1ccc(C(=O)Nc2nc(-c3ccc(Br)cc3F)cs2)cc1 [Compound A-69]
17 | 71 nM | O=C(O)/C(Cl)=C/c1ccc(C(=O)Nc2nc(-c3cccc(Br)c3F)cs2)cc1 [Compound A-81]
18 | 98 nM | C/C(=C\c1ccc(C(=O)Nc2nc(-c3ccc(C(F)(F)F)cc3)cs2)cc1)C(=O)O [Compound A-26]
19 | 299 nM | O=C(O)CCc1ccc(C(=O)Nc2nc(-c3ccc(Cl)c(Cl)c3)cs2)cc1 [Compound G-2]
20 | 96 nM | CCOC(=O)/C(Cl)=C/c1ccc(C(=O)Nc2nc(-c3ccc(F)cc3)cs2)cc1 [Compound A-37]

Row | EC50 | SMILES
21 | 408 nM | CSc1ccc(-c2csc(NC(=O)c3ccc(/C=C(\Cl)C(=O)O)cc3)n2)cc1 [Compound A-78]
22 | 89 nM | Cc1ccc(-c2csc(NC(=O)c3ccc(/C=C(\Cl)C(=O)O)cc3)n2)c(F)c1 [Compound A-70]
23 | 59 nM | CCCNC(=O)C(C)=Cc1ccc(C(=O)Nc2nc(-c3ccc(Cl)c(Cl)c3)cs2)cc1 [Compound B-7]
24 | 222 nM | O=C(O)/C(F)=C/c1ccc(C(=O)Nc2nc(-c3ccc(F)cc3)cs2)cc1 [Compound A-68]
25 | 244 nM | CC/C(=C\c1ccc(C(=O)Nc2nc(-c3ccc(Cl)c(Cl)c3)cs2)cc1)C(N)=O [Compound B-17]
26 | 96 nM | CCOC(=O)/C(Cl)=C/c1ccc(C(=O)Nc2nc(-c3ccc(F)c(F)c3)cs2)cc1 [Compound A-35]
27 | 473 nM | CC(C)(C)c1ccc(-c2csc(NC(=O)c3ccc(/C=C(\Cl)C(=O)O)cc3)n2)cc1 [Compound A-48]
28 | 163 nM | C/C(=C\c1ccc(C(=O)Nc2nc(-c3ccc(Cl)c(Cl)c3)cs2)cc1)C(=O)NC1CC1 [Compound B-36]
29 | 213 nM | C/C(=C\c1ccc(C(=O)Nc2nc(-c3ccc(Cl)c(Cl)c3)cs2)cc1)C(=O)NCc1ccc(C(F)(F)F)cc1 [Compound B-13]
30 | 66 nM | O=C(O)/C(Cl)=C/c1ccc(C(=O)Nc2nc(-c3cccc(-c4ccccc4)c3F)cs2)cc1 [Compound A-80]
31 | 372 nM | C/C(=C\c1ccc(C(=O)Nc2nc(-c3ccc(Cl)c(Cl)c3)cs2)cc1)C(=O)NC(C)c1ccccc1 (centres unmarked) [Compound B-33]
32 | 360 nM | CC(c1ccc(C(=O)Nc2nc(-c3ccc(Cl)c(Cl)c3)cs2)cc1)C(Cl)C(=O)O (centres unmarked) [Compound G-8]
33 | 143 nM | O=C(O)C#Cc1ccc(C(=O)Nc2nc(-c3ccc(Cl)c(Cl)c3)cs2)cc1 [Compound L-2]
34 | 197 nM | C/C(=C\c1ccc(C(=O)Nc2nc(-c3ccc(Cl)c(Cl)c3)cs2)cc1)C(=O)NCc1cccs1 [Compound B-15]
35 | 44 nM | CCOC(=O)/C(Cl)=C/c1ccc(C(=O)Nc2nc(-c3ccc(C(F)(F)F)cc3)cs2)cc1 [Compound A-39]
36 | 243 nM | O=C(O)/C(Cl)=C/c1ccc(C(=O)Nc2nc(-c3ccc(F)c(Br)c3F)cs2)cc1 [Compound A-86]
37 | 116 nM | Cc1sc(NC(=O)c2ccc(/C=C(\Cl)C(=O)O)cc2)nc1-c1cccc(Br)c1 [Compound J-13]
38 | 89 nM | CNC(=O)C(C)=Cc1ccc(C(=O)Nc2nc(-c3ccc(Cl)c(Cl)c3)cs2)cc1 [Compound B-4]
39 | 289 nM | CCOC(=O)/C(Cl)=C/c1ccc(C(=O)Nc2nc(-c3cccc(F)c3)cs2)cc1 [Compound A-29]
40 | 36 nM | Cc1sc(NC(=O)c2ccc(/C=C(\Cl)C(=O)O)cc2)nc1-c1cccc(C(F)(F)F)c1 [Compound J-14]

Row | EC50 | SMILES
41 | 39 nM | CCOC(=O)/C(Cl)=C/c1ccc(C(=O)Nc2nc(-c3cccc(C(F)(F)F)c3)cs2)cc1 [Compound A-41]
42 | 177 nM | C/C(=C\c1ccc(C(=O)Nc2nc(-c3ccc(Cl)c(Cl)c3)cs2)cc1)C(=O)Nc1ccccc1 [Compound B-30]
43 | 144 nM | CC(=Cc1ccc(C(=O)Nc2nc(-c3ccc(Cl)c(Cl)c3)cs2)cc1)S(=O)(=O)NC(C)(C)C [Compound F-2]
44 | 425 nM | COc1cccc(-c2csc(NC(=O)c3ccc(/C=C(\Cl)C(=O)O)cc3)n2)c1 [Compound A-52]
45 | 190 nM | C=CCNC(=O)/C(C)=C/c1ccc(C(=O)Nc2nc(-c3ccc(Cl)c(Cl)c3)cs2)cc1 [Compound B-41]
46 | 213 nM | CONC(=O)/C(C)=C/c1ccc(C(=O)Nc2nc(-c3ccc(Cl)c(Cl)c3)cs2)cc1 [Compound B-46]
47 | 82 nM | C/C(=C\c1ccc(C(=O)Nc2nc(-c3ccc(Cl)c(Cl)c3)cs2)cc1)C(=O)NCc1ccccc1 [Compound B-9]
48 | 201 nM | C#CCNC(=O)/C(C)=C/c1ccc(C(=O)Nc2nc(-c3ccc(Cl)c(Cl)c3)cs2)cc1 [Compound B-40]
49 | 198 nM | CC(=Cc1ccc(C(=O)Nc2nc(-c3ccc(Cl)c(Cl)c3)cs2)cc1)S(N)(=O)=O [Compound F-3]
50 | 123 nM | CSCCCNC(=O)/C(C)=C/c1ccc(C(=O)Nc2nc(-c3ccc(Cl)c(Cl)c3)cs2)cc1 [Compound B-32]
51 | 66 nM | O=C(O)/C(Cl)=C/c1ccc(C(=O)Nc2nc(-c3ccc(F)cc3F)cs2)cc1 [Compound A-56]
52 | 132 nM | C/C(=C\c1ccc(C(=O)Nc2nc(-c3cccc(F)c3)cs2)cc1)C(=O)O [Compound A-18]
53 | 707 nM | C/C(=C\c1ccc(C(=O)Nc2nc(-c3ccc(Cl)c(Cl)c3)cs2)cc1)C(=O)NCCN(C)C [Compound B-27]
54 | 337 nM | CCOC(=O)/C(C)=C/c1ccc(C(=O)Nc2nc(-c3ccc(F)cc3)cs2)cc1 [Compound A-23]
55 | 288 nM | C/C(=C\c1ccc(C(=O)Nc2nc(-c3ccc(F)cc3)cs2)cc1)C(=O)O [Compound A-24]
56 | 150 nM | CCOC(=O)/C(C)=C/c1ccc(C(=O)Nc2nc(-c3ccc(C(F)(F)F)cc3)cs2)cc1 [Compound A-25]
57 | 203 nM | O=C(O)C(F)=Cc1ccc(C(=O)Nc2nc(-c3cccc(OC(F)(F)F)c3)cs2)cc1 [Compound A-45]
58 | 50 nM | O=C(O)/C(Cl)=C/c1ccc(C(=O)Nc2nc(-c3cccc(C(F)(F)F)c3)cs2)cc1 [Compound A-42]
59 | 199 nM | COc1cccc(-c2csc(NC(=O)c3ccc(/C=C(\Cl)C(=O)O)cc3)n2)c1F [Compound A-82]

Source: US20100022542A1, “COMPOUNDS EXHIBITING THROMBOPOIETIN RECEPTOR AGONISM” (Shionogi & Co., Ltd., priority 2000, published 2010)
